Where a name gives a salt, the structure may show the parent alone.
Columns and labels:
[1] = molecular target: T1, Rat GnRH Receptor (Rattus norvegicus, UniProt P30969); assay: ^125 I-leuprolerin binding inhibition, rat anterior pituitary membrane fraction; parameters: species or system rat (Wistar); details: 4° C. for 90 minutes, read-out: GnRH-receptor binding inhibitory activity (IC50, μM) Rat
T1 construct: from tissue; host or cells: anterior pituitary of male Wistar rats (8 weeks old), membrane fraction
T1 sequence (P30969 1-327): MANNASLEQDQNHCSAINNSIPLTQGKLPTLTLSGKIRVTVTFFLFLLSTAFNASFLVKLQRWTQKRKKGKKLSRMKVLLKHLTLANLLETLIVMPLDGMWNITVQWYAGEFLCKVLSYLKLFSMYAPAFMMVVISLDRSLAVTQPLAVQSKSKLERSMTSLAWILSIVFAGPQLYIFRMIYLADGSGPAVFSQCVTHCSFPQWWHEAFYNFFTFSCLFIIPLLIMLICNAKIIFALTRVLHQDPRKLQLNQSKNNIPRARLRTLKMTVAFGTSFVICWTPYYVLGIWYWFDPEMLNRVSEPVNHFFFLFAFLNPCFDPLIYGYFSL
Protocol: A tube was filled with 10 μl of an aqueous solution of leuprolerin (3×10^4 M) and lactoperoxidase (0.01 mg/ml) followed by addition of 10 μl of Na^125 I solution (37 MBq). After stirring, 10 μl of 0.001% H2 O2 was added and the reaction was conducted at room temperature for 20 minutes. The reaction was stopped by adding 700 μl of 0.05% TFA and the reaction mixture was subjected to reversed-phase HPLC under the conditions set forth below. ^125 I-leuprolerin was eluted with a retention time of 26-27 minutes. Forty rats (8 weeks old, male) of Wistar strain were decapitated under no anesthesia and the anterior pituitary isolated from each animal was washed with an ice-cooled homogenate buffer (25 mM Tris (tris(hydroxylmethyl)aminomethane)-HCl, 0.3M sucrose, 1 mM EGTA (ethylene-bis(oxyethylenenitrilo)tetraacetic acid), 0.25 mM PMSF (phenylmethylsulfonyl fluoride), 10 U/ml aprotinin, 1 μg/ml pepstatin, 20 μg/ml leupeptin, 100 μg/ml phosphoramidon, 0.03% sodium azide; pH 7.5). The anterior pituitary was suspended in 2 ml of the same homogenate buffer as above and homogenized using a Polytron homogenizer. The homogenate thus prepared was centrifuged at 700 xg for 15 minutes and the supernatant was transferred to an ultracentrifuge cuvette and further centrifuged at 100,000 xg for 1 hour to provide a membrane fraction pellet. This pellet was suspended in 2 ml of an assay buffer (25 mM Tris-HCl, 1 mM ethylenediaminetetraacetic acid (EDTA), 0.1% bovine serum albumin (BSA), 0.25 mM PMSF, 1 μg/ml pepstatin, 20 μg/ml leupeptin, 100 μg/ml phosphoramidon, 0.03% sodium azide; pH 7.5) and centrifuged at 100,000 xg for 1 hour. The membrane fraction recovered as a pellet was resuspended in 10 ml of the same assay buffer as above, distributed into vials, preserved at -80° C., and reconstituted before use. The rat and human membrane fractions prepared under (B) and (D) were respectively diluted with the assay buffer to make 200 μg/ml each and 188 μl aliquots of each dilution were distributed into tubes. The bovine membrane fraction prepared under (C) was diluted with the assay buffer to make 750 μg/ml and 188 μl aliquots of the dilution were distributed into tubes. When the rat anterior pituitary membrane fraction was used, 2 μl of 0.1 mM compound/60% dimethyl sulfoxide (DMSO) and 10 μl of 38 nM ^125 I-leuprolerin were concurrently added. […] For determination of maximum binding, a reaction mixture was prepared by adding 2 μl of 60% DMSO and 10 μl of 38 nM ^125 I-leuprolerin. For determination of non-specific binding, a reaction mixture was prepared using 2 μl of 100 μM leuprolerin/60% DMSO and 10 μl of […] ^125 I-leuprolerin. When the rat and bovine anterior pituitary membrane fractions were used, each reaction was carried out at 4° C. for 90 minutes. On the other hand, when the human GnRH receptor-expressed CHO cell membrane fraction was used, the reaction was conducted at 25° C. for 60 minutes. After completion of the reaction, the reaction mixture was suction-filtered through a polyethyleneimine-treated Whatman glass filter (GF-F) [trademark;whatman]. After filtration, the radioactivity of the residual ^125 I-leuprolerin on the filter was measured using a γ-counter. The computation formula of (TB-SB)/(TB-NSB)×100 (SB=radioactivity bound in the presence of the test compound, TB=maximum amount of radioactivity bound, NSB=amount of radioactivity nonspecifically bound) was calculated to find the binding inhibition rate for the test compound. Moreover, the inhibition rate was determined by varying the concentration of each test compound and the concentration of the compound causing 50% inhibition of binding (IC50 value) was calculated by Hill plot.

[2] = molecular target: T2, Human GnRH receptor (Homo sapiens, UniProt P30968); assay: ^125 I-leuprolerin binding inhibition, human GnRH receptor-expressed CHO cell membrane fraction; details: 25° C. for 60 minutes, read-out: GnRH-receptor binding inhibitory activity (IC50, μM) Man
T2 construct: expressed in transfected cells; host or cells: CHO (Chinese hamster ovary) cells, membrane fraction
T2 sequence (P30968 1-328): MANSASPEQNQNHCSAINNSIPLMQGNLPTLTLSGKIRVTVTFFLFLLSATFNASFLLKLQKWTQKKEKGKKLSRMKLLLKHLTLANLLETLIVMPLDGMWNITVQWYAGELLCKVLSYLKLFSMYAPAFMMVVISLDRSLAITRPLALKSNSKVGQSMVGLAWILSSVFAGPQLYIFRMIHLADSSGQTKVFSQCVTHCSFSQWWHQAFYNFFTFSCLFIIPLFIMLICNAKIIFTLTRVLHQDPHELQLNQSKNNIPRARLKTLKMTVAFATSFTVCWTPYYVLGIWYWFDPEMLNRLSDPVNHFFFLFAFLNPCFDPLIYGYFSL
Protocol: A tube was filled with 10 μl of an aqueous solution of leuprolerin (3×10^4 M) and lactoperoxidase (0.01 mg/ml) followed by addition of 10 μl of Na^125 I solution (37 MBq). After stirring, 10 μl of 0.001% H2 O2 was added and the reaction was conducted at room temperature for 20 minutes. The reaction was stopped by adding 700 μl of 0.05% TFA and the reaction mixture was subjected to reversed-phase HPLC under the conditions set forth below. ^125 I-leuprolerin was eluted with a retention time of 26-27 minutes. […] To the sediment was added 10 ml of a cell homogenate buffer (10 mM NaHCO3, 5 mM EDTA, pH 7.5) and the mixture was homogenized using a Polytron homogenizer. The homogenate was centrifuged at 400 xg for 15 minutes and the supernatant was transferred to an ultracentrifuge cuvette and centrifuged at 100,000 xg for 1 hour to prepare a membrane fraction pellet. This pellet was suspended in 2 ml of the assay buffer and further centrifuged at 100,000 xg for 1 hour. The membrane fraction recovered as a pellet was resuspended in 20 ml of the assay buffer, distributed into vials, preserved at -80° C., and reconstituted before use. The rat and human membrane fractions prepared under (B) and (D) were respectively diluted with the assay buffer to make 200 μg/ml each and 188 μl aliquots of each dilution were distributed into tubes. The bovine membrane fraction prepared under (C) was diluted with the assay buffer to make 750 μg/ml and 188 μl aliquots of the dilution were distributed into tubes. When the rat anterior pituitary membrane fraction was used, 2 μl of 0.1 mM compound/60% dimethyl sulfoxide (DMSO) and 10 μl of 38 nM ^125 I-leuprolerin were concurrently added. […] For determination of maximum binding, a reaction mixture was prepared by adding 2 μl of 60% DMSO and 10 μl of 38 nM ^125 I-leuprolerin. For determination of non-specific binding, a reaction mixture was prepared using 2 μl of 100 μM leuprolerin/60% DMSO and 10 μl of […] ^125 I-leuprolerin. When the rat and bovine anterior pituitary membrane fractions were used, each reaction was carried out at 4° C. for 90 minutes. On the other hand, when the human GnRH receptor-expressed CHO cell membrane fraction was used, the reaction was conducted at 25° C. for 60 minutes. After completion of the reaction, the reaction mixture was suction-filtered through a polyethyleneimine-treated Whatman glass filter (GF-F) [trademark;whatman]. After filtration, the radioactivity of the residual ^125 I-leuprolerin on the filter was measured using a γ-counter. The computation formula of (TB-SB)/(TB-NSB)×100 (SB=radioactivity bound in the presence of the test compound, TB=maximum amount of radioactivity bound, NSB=amount of radioactivity nonspecifically bound) was calculated to find the binding inhibition rate for the test compound. Moreover, the inhibition rate was determined by varying the concentration of each test compound and the concentration of the compound causing 50% inhibition of binding (IC50 value) was calculated by Hill plot.

Row | IC50 [1] [µM] | IC50 [2] [µM] | SMILES
1 | 0.01 | 0.8 | COc1cc2c(cc1OC)CC1(CCCCN1CCCC(CCCNC(=O)Cc1ccc([N+](=O)[O-])cc1)(c1ccccc1)c1ccccc1)CC2 (stereo not shown) [II-53, 3,4-Dihydro-6,7-dimethoxy-1'-{4,4-diphenyl-7-[(4-nitrophenylacetyl)amino]heptyl}spiro[naphthalene-2(1H),2'-piperidine] hydrochloride]
2 | 0.0007 | 0.08 | COc1cc2c(cc1OC)CC1(CCCCN1CCCC(CCCNC(=O)Cc1ccc(F)cc1)(c1ccccc1)c1ccccc1)CC2 (stereo not shown) [II-50, 3,4-Dihydro-6,7-dimethoxy-1'-{4,4-diphenyl-7-[(4-fluorophenylacetyl)amino]heptyl}spiro[naphthalene-2(1H),2'-piperidine] hydrochloride]
3 | 0.001 | 0.4 | COc1cc2c(cc1OC)CC1(CCCCN1CCCC(CCCNC(=O)Cc1ccsc1)(c1ccccc1)c1ccccc1)CC2 (stereo not shown) [II-63, 3,4-Dihydro-6,7-dimethoxy-1'-{4,4-diphenyl-7-[(3-thienylacetyl)amino]heptyl}spiro[naphthalene-2(1H),2'-piperidine] hydrochloride]
4 | 0.009 | 0.4 | COc1ccc(CC(=O)NCCCC(CCCN2CCCCC23CCc2cc(OC)c(OC)cc2C3)(c2ccc(F)cc2)c2ccc(F)cc2)cc1 (stereo not shown) [II-68, 3,4-Dihydro-6,7-dimethoxy-1'-{4,4-bis(4-fluorophenyl)-7-[(4-methoxyphenylacetyl)amino]heptyl}spiro[naphthalene-2(1H),2'-piperidine] hydrochloride]
5 | 0.0016 | 0.11 | COc1ccc(CC(=O)NCCCC(CCCN2CCCCC23CCc2cc(OC)c(OC)cc2C3)(c2ccccc2)c2ccccc2)cc1 (stereo not shown) [II-58, 3,4-Dihydro-6,7-dimethoxy-1'-{4,4-diphenyl-7-[(4-methoxyphenylacetyl)amino]heptyl}spiro[naphthalene-2(1H),2'-piperidine] hydrochloride]

— US5633248A, “Amine compounds, their production and use” (priority 1994, dated 1997)
